Assay results reported in ChEMBL document CHEMBL1149214, “1,2-Diaryl-1-ethanone and pyrazolo [4,3-c] quinoline-4-one as novel selective cyclooxygenase-2 inhibitors” (Bioorg Med Chem Lett, 2004).

Key:
[1] = biological target: T1, Prostaglandin G/H synthase 1 (Ovis aries) (UniProt P05979); experiment: Inhibition of prostaglandin G/H synthase 1 enzyme from ram seminal vesicles by spectrophotometric method at 10 uM
T1 sequence (whole entry): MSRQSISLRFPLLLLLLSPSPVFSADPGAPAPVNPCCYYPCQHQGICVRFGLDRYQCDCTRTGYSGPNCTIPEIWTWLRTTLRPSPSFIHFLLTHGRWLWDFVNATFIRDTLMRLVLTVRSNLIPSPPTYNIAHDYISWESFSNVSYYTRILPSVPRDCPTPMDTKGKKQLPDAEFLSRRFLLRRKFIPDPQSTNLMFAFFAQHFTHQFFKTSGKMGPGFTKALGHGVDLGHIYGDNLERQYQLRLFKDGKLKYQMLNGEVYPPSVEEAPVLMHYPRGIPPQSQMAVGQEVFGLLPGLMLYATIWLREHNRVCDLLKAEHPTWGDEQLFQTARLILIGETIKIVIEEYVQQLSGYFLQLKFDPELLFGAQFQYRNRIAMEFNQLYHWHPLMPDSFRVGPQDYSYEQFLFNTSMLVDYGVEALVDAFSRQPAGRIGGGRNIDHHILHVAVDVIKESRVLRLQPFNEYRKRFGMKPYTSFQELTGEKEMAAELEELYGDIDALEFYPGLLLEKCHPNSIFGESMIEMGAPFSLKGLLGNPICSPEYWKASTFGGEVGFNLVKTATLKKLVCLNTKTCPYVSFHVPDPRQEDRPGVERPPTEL

[2] = biological target: T2, Prostaglandin G/H synthase 1 (Ovis aries, UniProt P05979); experiment: Inhibition of prostaglandin G/H synthase 1 enzyme from ram seminal vesicles by spectrophotometric method
T2 sequence (P05979 whole entry): T1 sequence (whole entry)

[3] = biological target: T3, Prostaglandin G/H synthase 2 (Homo sapiens, UniProt P35354); experiment: Inhibition of human Prostaglandin G/H synthase 2 in sf-9 cells by spectrophotometric method; format: cell-based, Sf9
T3 sequence (P35354 whole entry): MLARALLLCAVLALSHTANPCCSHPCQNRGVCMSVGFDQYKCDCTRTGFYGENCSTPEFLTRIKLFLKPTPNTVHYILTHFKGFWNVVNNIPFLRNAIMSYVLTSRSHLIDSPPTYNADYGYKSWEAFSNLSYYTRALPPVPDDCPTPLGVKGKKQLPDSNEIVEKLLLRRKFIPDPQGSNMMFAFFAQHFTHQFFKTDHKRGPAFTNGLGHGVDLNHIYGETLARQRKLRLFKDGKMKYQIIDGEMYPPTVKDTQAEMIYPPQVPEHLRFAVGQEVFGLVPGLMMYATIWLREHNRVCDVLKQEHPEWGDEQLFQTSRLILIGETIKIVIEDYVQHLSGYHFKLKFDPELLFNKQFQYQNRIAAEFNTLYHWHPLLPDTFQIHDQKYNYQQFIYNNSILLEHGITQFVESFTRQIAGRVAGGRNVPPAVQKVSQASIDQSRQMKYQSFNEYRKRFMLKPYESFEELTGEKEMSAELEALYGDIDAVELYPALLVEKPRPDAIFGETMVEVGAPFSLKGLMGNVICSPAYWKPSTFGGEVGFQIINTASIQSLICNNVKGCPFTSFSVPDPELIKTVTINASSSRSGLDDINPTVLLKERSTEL

Rattus norvegicus = experiment: Activity in Carrageenan induced rat paw model at 30 mg/Kg; Range = 25-45%; format: functional
[4] = biological target: T3, Prostaglandin G/H synthase 2; experiment: Inhibition of human Prostaglandin G/H synthase 2 in sf-9 cells by spectrophotometric method

`NS(=O)(=O)c1ccc(C(Nc2nc3ccccc3s2)C(=O)c2ccc(F)cc2)cc1` (centres undefined) gave an inhibition [1] of 23%.

For `Cc1nn(-c2ccccc2)c2c1c(O)nc1ccccc12`, the inhibition [1] was 82%.

`NS(=O)(=O)c1ccc(C(Nc2ncccn2)C(=O)c2ccc(F)cc2)cc1` (centres undefined) gave an inhibition [1] of -0%.

`NS(=O)(=O)c1ccc(C(Nc2ccccn2)C(=O)c2ccc(F)cc2)cc1` (centres undefined) was tested, and the inhibition [1] was 30%.

For `C[S+]([O-])c1ccc(C(Nc2cccnc2)C(=O)c2ccc(F)cc2)cc1` (centres undefined), the IC50 [2] was 50 µM, the inhibition [1] was -0% and the IC50 [3] was 0.5 µM. For the same compound, the Activity (Rattus norvegicus) was under 45%.

Compound `C[S+]([O-])c1ccc(C(=O)C(Nc2nccs2)c2ccccc2)cc1` (centres undefined) has an inhibition [1] of 29%.

`CS(=O)(=O)c1ccc(C(Nc2nccs2)C(=O)c2ccc(F)cc2)cc1` (centres undefined) gave an inhibition [1] of -0%.

`Cc1nn(-c2ccc(S(N)(=O)=O)c(CO)c2)c2c1c(O)nc1ccccc12` was tested, and the inhibition [1] was -0%.

In the case of `Cc1nn(-c2ccc(S(N)(=O)=O)c(CO)c2)c2c1c(O)nc1ccc([N+](=O)[O-])cc12`, the inhibition [1] is reported as -0%.

`CSc1ccc(C(=O)C(Nc2ncccc2Cl)c2ccccc2)cc1` (centres undefined) gave an inhibition [1] of 53%.

`Cc1nn(-c2ccc(S(N)(=O)=O)cc2)c2c1c(=O)[nH]c1ccc([N+](=O)[O-])cc12` gave an IC50 [2] of 4.7 µM and an IC50 [4] of 0.24 µM.

For `Cc1nn(-c2ccccc2)c2c1c(O)nc1ccc([N+](=O)[O-])cc12`, the IC50 [2] was 5 µM, the inhibition [1] was 46% and the Activity (Rattus norvegicus) was under 45%. The IC50 [4] was 0.55 µM.

Work on `Cc1nn(-c2ccc(S(=O)(=O)NCc3ccccc3)cc2)c2c1c(O)nc1ccc([N+](=O)[O-])cc12` yielded an inhibition [1] of 78%.

Compound `NS(=O)(=O)c1ccc(C(Nc2nccs2)C(=O)c2ccc(F)cc2)cc1` (centres undefined) has an inhibition [1] of -0%.

Work on `CS(=O)(=O)c1ccc(C(=O)C(Nc2nccs2)c2ccccc2)cc1` (centres undefined) yielded an inhibition [1] of 10%.

`Cc1nn(-c2ccc(S(N)(=O)=O)cc2)c2c1c(O)nc1ccccc12` gave an inhibition [1] of 20%.

Compound `Cc1nn(-c2ccc(S(N)(=O)=O)cc2)c2c1c(O)nc1ccc([N+](=O)[O-])cc12` has an inhibition [1] of 40% and an Activity (Rattus norvegicus) of under 45%.

In the case of `C[S+]([O-])c1ccc(C(Nc2nccs2)C(=O)c2ccc(F)cc2)cc1` (centres undefined), the IC50 [2] is reported as 500 µM, the inhibition [1] is reported as -0% and the IC50 [3] is reported as 2.1 µM. It also gave an Activity (Rattus norvegicus) of under 45%.
